This passage reports bioavailability results from patent EP2269591B1, “IMPROVED PHARMACEUTICAL FORMULATIONS” (AbbVie Inc., priority 2000, dated 2001).

Where two headings read alike, the source gives them in different places. Some results are limits rather than exact numbers.

The series in a line: oral bioavailability in dogs. It is filed as in vivo. To be noted: unformulated solid in a capsule dosage form, 5 mg/kg oral dose in dogs. The procedure: Dogs (beagle dogs, mixed sexes, weighing 7-14 kg) were fasted overnight prior to dosing, but were permitted water ad libitum. Each dog received a 100 µg/kg subcutaneous dose of histamine approximately 30 minutes prior to dosing. Each dog received a single dosage form corresponding to a 5 mg/kg dose of the drug. The dose was followed by approximately 10 milliliters of water. Blood samples were obtained from each animal prior to dosing and 0.25, 0.5, 1.0, 1.5, 2, 3, 4, 6, 8, 10, and 12 hours after drug administration. The plasma was separated from the red cells by centrifugation and frozen (-30 °C) until analysis. Concentrations of parent drug were determined by reverse phase HPLC with low wavelength UV detection following liquid-liquid extraction of the plasma samples. The parent drug area under the curve was calculated by the trapezoidal method over the time course of the study. The absolute bioavailability of each test composition was calculated by comparing the area under the curve after oral dosing to that obtained from a single intravenous dose. Each capsule or capsule composition was evaluated in a group containing at least six dogs; the values reported are averages for each group of dogs.

In the case of `CC(C)c1nc(CN(C)C(=O)NC(C(=O)NC(Cc2ccccc2)CC(O)C(Cc2ccccc2)NC(=O)OCc2cncs2)C(C)C)cs1` (centres unmarked) [bis-tosylate of a compound of formula I], the bioavailability (in general, dose-corrected exposure relative to a reference, in per cent) (dog, in vivo, read-out: bioavailability) is less than 2%. Turning to `CC(C)c1nc(CN(C)C(=O)N[C@H](C(=O)N[C@@H](Cc2ccccc2)C[C@H](O)[C@H](Cc2ccccc2)NC(=O)OCc2cncs2)C(C)C)cs1` [compound of formula I], the bioavailability entry is on record as “less than 2%”.
